Source: patent US11351130B2, “Prevention and reversal of inflammation induced DNA damage” (Indiana University Research and Technology Corporation, priority 2017, dated 2022)

Tests used:
APE1 [1] = target: T1, APE1 (Homo sapiens, UniProt P27695); experiment: AP endonuclease DNA repair assay; assay type: biochemical; details: APX2009 in the nanomolar range
Protocol: Inhibition or enhancement of APE1 DNA repair endonuclease activity was performed as previously described (Bapat et al., 2010). The APE1 repair activity assay was performed in a plate assay using two annealed oligonucleotides (5′-6-FAM-GCCCCC*[…]-3′ (SEQ ID NO:3) and 3′-Q-[…]-5′ (SEQ ID NO:4)) containing a quencher on one strand and a fluorescent 6-FAM label with tetrahydrofuran as an AP site mimic. Oligo cleavage at the AP mimic site results in 6-FAM release and detection. The fluorescence was read at five, one-minute intervals using a Tecan Ultra plate reader (Chemical Genomics Core, Indiana University School of Medicine). The rate of the reaction was used to determine the change in APE1 repair activity as compared to the vehicle control.

[2] = test system: Pa03C patient-derived PDAC cells; experiment: Tumor and CAF 3D co-cultures, tumor cells; assay type: cell-based, human; details: tumor alone or co-cultured with CAFs, 12 days in culture, vs vehicle control
From the text: (§1) Patient-derived tumor cells and CAF19 cells were a kind gift from Dr. Anirban Maitra (The Johns Hopkins University M.D. Anderson Cancer Center) (Jones et al., 2008). All cell lines were authenticated via STR analysis (IDEXX BioResearch) and checked routinely for mycoplasma contamination. Ultra low attachment 96-well plates (Corning Inc., Life Sciences) were used to generate 3-dimensional tumor spheroids in the presence and absence of CAFs, as described previously (Sempere et al., 2011; Arpin, 2015). TdTomato-labeled PDAC cells and EGFP-labeled CAFs are resuspended in colorless DMEM media containing 3% Reduced Growth Factor Matrigel (BD Biosciences) and 5% FBS at a cell ratio of 1:4 (tumor:CAF) and fed on days 4 and 8 following plating. Both cell populations are quantitated for intensity and area via Thermo ArrayScan at day 12 of co-culture.

NFκB = experiment: NF-κB luciferase reporter transactivation assay; assay type: cell-based; details: read-out: inhibition of NFκB binding to the reporter construct, IC50
Protocol: Reporter assays were performed as previously described (Georgiadis et al., 2008; Kelley et al., 2011; Cardoso et al., 2012b; Luo et al., 2012). Cells were transfected with NF-κB-Luciferase construct containing an NF-κB-response promoter and driving the expression of a luciferase gene and a Renilla luciferase control reporter vector pRL-CMV. After a 24-hour transfection period, cells were lysed, and Firefly and Renilla luciferase activities were assayed using Renilla luciferase activity for normalization. All of the transfection experiments were performed in triplicate and repeated at least three times in independent experiments. Data are expressed as mean±standard error from a representative experiment, and Student's t tests were performed.

APE1 [3] = target: T1, APE1; experiment: redox APE1 electrophoretic mobility shift assay (EMSA); assay type: biochemical; parameters: Purified APE1 was reduced with 1.0 mM DTT for 10 minutes; details: read-out: redox inhibition IC50
Protocol: EMSAs were performed as described (Luo et al., 2012). Purified APE1 was reduced with 1.0 mM DTT for 10 minutes and diluted to a final concentration of 0.006 mM with 0.02 mM DTT in PBS. Reduced APE1 was added to EMSA reaction buffer (10 mM Tris (pH 7.5), 50 mM NaCl, 1 mM MgCl2, 1 mM EDTA, 5% [vol/vol] glycerol) with […] 0.007 mM protein mixture (1:1) of purified truncated c-Jun and c-Fos proteins containing DNA-binding domain and leucine zipper and incubated for 30 minutes at room temperature. The EMSA assay was performed as previously described (Luo et al., 2008; Nyland et al., 2010; Kelley et al., 2011; Luo et al., 2012).

Pharmacokinetics (PK) = details: in vivo
Protocol: (§2) PK studies were performed in the IU Simon Cancer Center Clinical Pharmacology Analytical Core (CPAC), as previously described for E3330 (Fishel et al., 2011) and standards for the compounds used. P450 metabolism studies using human microsomes were also performed in CPAC directed by Dr. David Jones.

CAF19 cells = experiment: Tumor and CAF 3D co-cultures, CAFs; assay type: cell-based, human; details: co-culture with tumor cells, 12 days in culture
From the text: as §1

[4] = test system: sensory neuronal cultures; experiment: Neuronal cell viability (trypan blue exclusion); assay type: cell-based; details: for effect on cisplatin-induced cell death: 20 μM for 48 hours prior to and throughout the cisplatin treatment (24 hours)
Protocol: (§3) Primary cultures of sensory neurons were harvested and maintained as previously described (Vasko et al., 2005). Briefly, adult male Sprague-Dawley rats (150-175 g; Harlan, Indianapolis, Ind.) were euthanized by CO2 asphyxiation and dorsal root ganglia (DRG) dissected from all spinal levels, transferred to into a collagenase solution (1 mg/ml), incubated for 1 hour at 37° C., then dissociated by mechanical agitation. Approximately 30,000 cells or 60,000 cells were plated into each well of 12-well or 6-well culture plates, respectively. All culture dishes were precoated with poly-D-lysine and laminin. Cells were maintained in F-12 media supplemented with 10% horse serum, 2 mM glutamine, 100 μg/ml Normocin™, 50 μg/ml penicillin, 50 μg/ml streptomycin, 50 μM 5-fluoro-2′-deoxyuridine (Invitrogen), 150 μM uridine, and 30 ng/ml of NGF in 3% CO2 at 37° C. Growth medium was changed every other day. Experiments were performed after cells were maintained in culture for 12-14 days.
Sensory neuronal culture trypan blue exclusion analysis was performed as previously described (Vasko et al., 2011). Cells were detached by adding a 0.05% trypsin-EDTA solution and media to each well. An equal volume of 0.4% (w/v) trypan blue in PBS was added to the cell suspension and the numbers of living cells (i.e., those that exclude the dye) were counted under a phase contrast microscope using a hemacytometer. Percent survival was calculated as the percent of live cells divided by the total cell number (including dead and live cells).

[5] = test system: sensory neurons in culture; assay type: cell-based, rat; details: for effect on cisplatin-induced reduction in capsaicin-evoked CGRP release: 72 hour treatment, 10 μM cisplatin
Protocol: as §3
For release experiments, cell cultures were washed with HEPES buffer consisting of (in mM) 25 HEPES, 135 NaCl, 3.5 KCl, 2.5 CaCl2, 1 MgCl2, 3.3 D-glucose, and 0.1% bovine serum albumin, pH 7.4 and maintained at 37° C. They then were incubated for successive 10-minute intervals with 0.4 ml of HEPES buffer alone (basal release), with buffer containing 30 nM capsaicin, then with buffer alone (to assess return to basal release). After each incubation, the buffer was removed and the amount of immunoreactive calcitonin-gene related peptide (CGRP) in each sample was measured using radioimmunoassay (RIA) as previously described (Chen et al., 1996). At the end of the release protocol, CGRP is extracted from the cultures and total content measured using RIA.

[6] = test system: sensory neuronal cultures; experiment: phospho-H2AX immunoblotting in sensory neuronal cultures (Example 3); assay type: cell-based, rat; details: for effect on cisplatin-induced pH2AX levels (DNA damage): 20 μM for 48 hours prior to and throughout exposure to 10 μM cisplatin
Protocol: as §3
Immunoblotting was performed as previously described (Kelley et al., 2014). Briefly, cells were lysed in RIPA buffer (Santa Cruz Biotechnology; Santa Cruz, Calif., USA) and protein was quantified using the Lowey assay. Proteins were separated by electrophoresis on a 4-12% SDS-polyacrylamide gel. The gel was transferred to a PVDF membrane and incubated overnight at 4° C. in Tris-buffered saline containing 0.1% Tween-20 (TBST) and 5% nonfat dry milk while gently agitating. Mouse monoclonal antihuman Ape1 antibodies (1:500), mouse monoclonal anti-phospho H2AX antibodies (1:1000), or (3-Actin monoclonal antibody (1:1000) were added to the blocking solution and incubated overnight at room temperature while gently agitating. Antibody binding was detected following appropriate secondary antibody methods using chemiluminescence. The density of the bands was measured using QUALITYONE® software from Bio-Rad (Hercules, Calif.) and data expressed as density normalized to actin.

[7] = P450 metabolism analysis using human microsomes; assay type: in vitro ADME; details: human
Protocol: as §2

human microsomes = experiment: P450 metabolism analysis using human microsomes; assay type: in vitro ADME; details: vs E3330
Protocol: as §2

APE1 [8] = experiment: APE1 expression (immunoblotting) after siRNA; assay type: cell-based, rat; details: 100 nM siRNA
Protocol: Small interfering RNAs to APE1 (APE1siRNA) and scrambled siRNA (SCsiRNA) controls were used to decrease APE1 protein expression in sensory neuronal cell cultures and as controls, respectively, as described previously (Vasko et al., 2005, Jiang et al., 2008a). On day 3 in culture, the growth media was replaced with 0.5 ml of Opti-MEM 1 media containing 100 nM of APE1siRNA (5′-[…]-3′ (SEQ ID NO:1)) or SCsiRNA (5′-[…]-3′(SEQ ID NO:2)); (Vasko et al., 2005)) and 10 μl of the transfecting reagent, Neuroporter. On the next day, 0.5 ml of the growth media without antibiotics was added to each well, and after an additional 24 hours the media containing siRNA was replaced with normal growth media.
Tissues or cells were harvested, lysed in RIPA buffer (Santa Cruz Biotechnology; Santa Cruz, Calif., USA), sonicated, and cleared of cellular debris by centrifuging at 4000 RPM for 2 minutes. Protein was quantified using Lowry assay, and electrophoresed in a 12% SDS-polyacrylamide gel. […] Antibody binding was detected following appropriate secondary antibody methods using chemiluminescence. The density of the bands was measured using Quantity One software from Bio-Rad (Hercules, Calif.) and data expressed as density normalized to vinculin.

T1 sequence (P27695 whole entry, species assumed): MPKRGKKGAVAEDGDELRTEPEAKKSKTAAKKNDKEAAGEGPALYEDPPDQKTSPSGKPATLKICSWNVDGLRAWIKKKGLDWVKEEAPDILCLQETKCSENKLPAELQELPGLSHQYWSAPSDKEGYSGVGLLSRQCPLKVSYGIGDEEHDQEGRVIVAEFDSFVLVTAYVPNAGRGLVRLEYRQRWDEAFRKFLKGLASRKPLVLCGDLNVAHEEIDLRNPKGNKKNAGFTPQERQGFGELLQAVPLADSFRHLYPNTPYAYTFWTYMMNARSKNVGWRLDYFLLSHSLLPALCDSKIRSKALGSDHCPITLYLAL

Q: Which “APE1 repair (endonuclease) activity” value (APE1 [1]) does the source give for `CCC/C(=C\C1=C(OC)C(=O)c2ccccc2C1=O)C(=O)N(CC)CC` [APX2009, (2E)-2-[(3-methoxy-1,4-dioxo-1,4-dihydronaphthalen-2-yl)methylidene]-N,N-diethylpentanamide] here?
A: stimulation of APE1 repair activity

Q: And the “tumor intensity and area in 3D spheroids” value [2]?
A: statistical differences were observed for the tumor alone or tumor co-cultured with CAFs

Q: And the IC50 (NFκB)?
A: 7 µM

Q: And the IC50 (APE1 [3])?
A: 1 µM

Q: What about the half-life (Pharmacokinetics (PK)) of the same compound?
A: 25.8 h

Q: What about the “half-life increase compared to E3330” value (Pharmacokinetics (PK)) of the same compound?
A: ~7 fold

Q: What about the “CAF intensity and area in 3D spheroids” value (CAF19 cells) of the same compound?
A: not significantly affected

Q: What about the “effect on cisplatin-induced cell death” value [4] of the same compound?
A: blocked

Q: What about the “protection from oxaliplatin-induced cell killing” value ([4]; 10 or 20 μM, 72-hour treatment, oxaliplatin 24 hours) of the same compound?
A: protected the sensory neuronal cultures from cell killing

Q: And the “cell death / cell viability, drug alone” value ([4]; 24 hours, E3330 10, 20 or 40 μM, APX2009 various concentrations)?
A: did not result in a significant reduction in cell viability

Q: And the “effect on cisplatin-induced reduction in capsaicin-evoked CGRP release” value ([5]; 10 μM)?
A: did not prevent the cisplatin-induced reduction in release

Q: What about the “effect on oxaliplatin-induced decrease in CGRP release” value ([5]; 48 hours prior to and throughout exposure to oxaliplatin for 24 hours) of the same compound?
A: prevented the oxaliplatin-induced decrease in CGRP release

Q: What about the “basal (resting) release or release of CGRP stimulated by 30 nM capsaicin, drug alone” value ([5]; 72 hours, E3330 20 μM, APX2009 10 or 20 μM, compared to untreated cells) of the same compound?
A: no significant change

Q: What about the “effect on cisplatin-induced pH2AX levels (DNA damage)” value [6] of the same compound?
A: significantly reduced the levels of pH2AX

Q: And the “phosphorylation of H2AX after oxaliplatin” value ([6]; 20 μM, 24 and 48 hr treatments of 30 μM oxaliplatin)?
A: significantly reduced the phosphorylation of H2AX

Q: What about the half-life [7] of the same compound?
A: 2.88 h

Q: What about the “half-life increase, P450 metabolism analysis” value (human microsomes) of the same compound?
A: 8.7 fold

Q: What does the source list for `COC1=C(/C=C(\C)C(=O)N(C)C)C(=O)c2ccccc2C1=O` [APX2032]?
A: APE1 repair (endonuclease) activity (APE1 [1]): no effect; IC50 (NFκB): 7 µM; IC50 (APE1 [3]): 1 µM; effect on cisplatin-induced cell death [4]: did not attenuate the cisplatin-induced cell death; cell viability, drug alone ([4]; 20 μM or 40 μM, 24 hours): significant reduction in cell viability; cell death, drug alone ([4]; 20 or 40 μM, 72 hours (data not shown)): significant increase in cell death; effect on cisplatin-induced reduction in capsaicin-evoked CGRP release ([5]; 10 μM): did block the effect of cisplatin; CGRP release, drug alone ([5]; 10 μM, 72 hours): did not affect CGRP release; capsaicin-stimulated release of CGRP, drug alone ([5]; 20 μM, 72 hours): significant increase in capsaicin-stimulated release; effect on cisplatin-induced pH2AX levels (DNA damage) [6]: neither APX2007 nor APX2032 (20 μM) altered the ability of cisplatin to produce DNA damage

Q: For “APE1siRNA: Small interfering RNA to APE1, 5′-GUCUGGUAAGACUGGAGUACC-3′ (SEQ ID NO:1) (chemistry not given here)”, which “APE1 expression relative to wildtype expression” value (APE1 [8]) is on record?
A: ~20%
